For one experiment, the target named is T1, CDK6/cyclin D3 (Homo sapiens, UniProt Q00534).
T1 construct: purchased Carna
Nature of the experiment: In vitro biochemical kinase activity assay for CDK6/cyclin D3 (HTRF). The procedure, abridged:
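HTRF assay: 0.02 nM CDK6/cyclin D3 incubated with 1 mM (or 100 µM) ATP and 0.3 µM Rb-biotin substrate at 30°C for 60 min in kinase buffer with 5 mM MgCl2 and 1 mM DTT.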

Another experiment deals with T2, CDK2/cyclin E1 (Homo sapiens, UniProt P24941).
T2 construct: purchased Carna
Nature of the experiment: In vitro biochemical kinase activity assay for CDK2/cyclin E1 (HTRF). The note with it: 1 µM ATP. How it is done: I. In Vitro Biochemical Kinase Activity Assay for CDK2/Cyclin E1
The inhibitory effects of the compounds of the present invention on CDK2/cyclin E1 kinase activity were determined using a homogeneous time-resolved fluorescence (HTRF) assay. The experimental process was as follows: • 1. The kinase reaction was carried out in a 384-well plate. 15 nM CDK2/cyclin E1 kinase (Carna), 1 µM ATP, and 1 µM biotin-labeled substrate protein ATF2-biotin (Cisbio) were incubated at room temperature for 90 min in a buffer system composed of 10 mM MgCl2, 1 mM MnCl2, 1 mM DTT, and basal kinase buffer (Cisbio). • 2. The detection solution (Cisbio, containing reagents that specifically recognize phosphorylated ATF2 and ATF2-biotin proteins, respectively) was added. The plate was then sealed with a film (to protect from light and volatilization) and incubated at 25°C for 60 min. • 3. The plate was transferred to an Envision plate reader to detect fluorescence resonance energy transfer (FRET) signals. (The 665/615 ratio was calculated by reading the emission at 665 nm and 615 nM, respectively.) • 4. The IC50 values were determined by analyzing the inhibition at varying compound concentrations using Model 205 in the XLfit software.

A further experiment addresses T3, CDK4/cyclin D3 (Homo sapiens, UniProt P11802).
T3 construct: purchased Carna
Nature of the experiment: In vitro biochemical kinase activity assay for CDK4/cyclin D3 (HTRF). Put shortly: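 HTRF kinase reaction: 4.9 nM CDK4/cyclin D3, 1 mM (or 80 µM) ATP and 0.3 µM Rb-biotin substrate, 90 min at 30°C in buffer with 50 mM MgCl2 and 1 mM DTT.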

The mark [1] stands for this setting: unmarked data: 100 µM ATP in Step 1.
[2] abbreviates: unmarked data: 80 µM ATP in Step 1.
Where [3] appears, read: data marked with *: 1 mM ATP in Step 1.

T3 sequence (P11802 whole entry): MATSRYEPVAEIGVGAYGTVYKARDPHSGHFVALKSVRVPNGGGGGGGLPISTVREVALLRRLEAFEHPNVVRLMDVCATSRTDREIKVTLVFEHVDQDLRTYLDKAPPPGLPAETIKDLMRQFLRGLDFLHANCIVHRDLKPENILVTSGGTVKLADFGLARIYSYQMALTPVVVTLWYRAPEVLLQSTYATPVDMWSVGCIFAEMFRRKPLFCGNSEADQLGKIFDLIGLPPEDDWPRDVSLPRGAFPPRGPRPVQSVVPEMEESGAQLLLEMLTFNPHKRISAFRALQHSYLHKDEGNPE
T3 sequence (P30281 whole entry partner): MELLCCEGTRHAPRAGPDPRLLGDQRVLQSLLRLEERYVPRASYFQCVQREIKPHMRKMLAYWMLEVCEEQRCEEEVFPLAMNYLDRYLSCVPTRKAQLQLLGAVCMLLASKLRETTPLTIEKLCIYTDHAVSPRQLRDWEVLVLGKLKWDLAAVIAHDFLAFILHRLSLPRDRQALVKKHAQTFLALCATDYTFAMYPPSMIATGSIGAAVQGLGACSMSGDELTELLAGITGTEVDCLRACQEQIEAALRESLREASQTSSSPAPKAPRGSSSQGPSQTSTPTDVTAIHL
T1 sequence (Q00534 whole entry): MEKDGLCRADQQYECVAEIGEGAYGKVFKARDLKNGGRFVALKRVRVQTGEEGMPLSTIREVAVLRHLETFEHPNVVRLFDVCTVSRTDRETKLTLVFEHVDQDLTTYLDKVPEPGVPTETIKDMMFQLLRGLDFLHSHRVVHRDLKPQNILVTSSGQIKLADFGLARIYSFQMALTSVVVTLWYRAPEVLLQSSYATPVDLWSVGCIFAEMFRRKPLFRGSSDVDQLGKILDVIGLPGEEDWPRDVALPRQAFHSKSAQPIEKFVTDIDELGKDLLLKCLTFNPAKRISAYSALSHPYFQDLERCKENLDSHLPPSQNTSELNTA
T1 sequence (P30281 whole entry partner): as the sequence (P30281 whole entry partner) above

As to `CC(C)n1c(C#Cc2nc(N[C@@H]3CCOC[C@H]3O)ncc2Cl)cnc1CN(C)C` [Example 63, (3 S,4R)-4-((5-chloro-4-((2-((dimethylamino)methyl)-1-isopropyl-1H-imidazol-5-yl)ethynyl)pyrimidin-2-yl)amino)tetrahydro-2H-pyran-3-ol], the values for the 50% inhibitory concentration (IC50) against CDK6/cyclin D3 (setting [1]), against CDK2/cyclin E1 and against CDK4/cyclin D3 (setting [2]) were 130 nM, 693 nM and 23.8 nM, respectively.

As to `CCN1CC2(C1)CN(c1ccc(Nc3ncc(F)c(C#Cc4cnn(C)c4C(C)C)n3)nc1)C2` [Example 61, N-(5-(6-ethyl-2,6-diazaspiro[3.3]heptan-2-yl)pyridin-2-yl)-5-fluoro-4-((5-isopropyl-1-methyl-1H-pyrazol-4-yl)ethynyl)pyrimidin-2-amine], the IC50 at CDK6/cyclin D3 (setting [1]) was determined as 8.46 nM; at CDK2/cyclin E1, 617 nM; on CDK4/cyclin D3 (setting [2]), 0.94 nM.

With `CC(C)n1c(C#Cc2nc(N[C@@H]3CCOC[C@H]3O)ncc2Cl)cnc1[C@H](C)O` [Example 30, (3 S,4R)-4-((5-chloro-4-((2-((S)-1-hydroxyethyl)-1-isopropyl-1H-imidazol-5-yl)ethynyl)pyrimidin-2-yl)amino)tetrahydro-2H-pyran-3-ol], the IC50 was found to be 11.4 nM against CDK6/cyclin D3 (setting [1]), 125 nM against CDK2/cyclin E1 and 1.14 nM on CDK4/cyclin D3 (setting [2]).

For the molecule `CC(C)n1c(C#Cc2nc(N[C@H]3CCOC[C@@H]3O)ncc2Cl)cnc1C(C)(C)O` [Example 3, (3R,4S)-4-((5-chloro-4-((2-(2-hydroxypropan-2-yl)-1-isopropyl-1H-imidazol-5-yl)ethynyl)pyrimidin-2-yl)amino)tetrahydro-2H-pyran-3-ol], the 50% inhibitory concentration (IC50) against CDK2/cyclin E1 was determined as 467 nM.

Regarding `CC(C)n1c(C#Cc2nc(N[C@@H]3CCOC[C@H]3O)ncc2Cl)cnc1C(C)(C)O` [Example 2, (3S,4R)-4-((5-chloro-4-((2-(2-hydroxypropan-2-yl)-1-isopropyl-1H-imidazol-5-yl)ethynyl)pyrimidin-2-yl)amino)tetrahydro-2H-pyran-3-ol], the IC50 against CDK2/cyclin E1 was 1320 nM.

Regarding `CC(C)n1c(C#Cc2nc(N[C@@H]3CCOC[C@H]3O)ncc2Cl)cnc1C1CC1` [Example 120, (3 S,4R)-4-((5-chloro-4-((2-cyclopropyl-1-isopropyl-1H-imidazol-5-yl)ethynyl)pyrimidin-2-yl)amino)tetrahydro-2H-pyran-3-ol], the IC50 against CDK6/cyclin D3 (setting [3]) amounted to 130 nM; against CDK4/cyclin D3 (setting [3]), 26.1 nM.

As for `CCN1CC2(C1)CN(c1ccc(Nc3ncc(Cl)c(C#Cc4cnc(CN5CCC[C@H](O)C5)n4C(C)C)n3)nc1)C2` [Example 108, (S)-1-((5-((5-chloro-2-((5-(6-ethyl-2,6-diazaspiro[3.3]heptan-2-yl)pyridin-2-yl)amino)pyrimidin-4-yl)ethynyl)-1-isopropyl-1H-imidazol-2-yl)methyl)piperidin-3-ol], the half-inhibitory concentration (IC50) was determined as 51.9 nM against CDK6/cyclin D3 (setting [3]) and 5.25 nM on CDK4/cyclin D3 (setting [3]).

As for `CC(C)n1c(C#Cc2nc(N[C@@H]3CCOC[C@H]3F)ncc2Cl)cnc1C(C)(C)O` [Example 91, 2-(5-((5-chloro-2-(((3 S,4R)-3-fluorotetrahydro-2H-pyran-4-yl)amino)pyrimidin-4-yl)ethynyl)-1-isopropyl-1H-imidazol-2-yl)propan-2-ol], the results for the half-inhibitory concentration (IC50) against CDK6/cyclin D3 (setting [3]) and on CDK4/cyclin D3 (setting [3]) were 333 nM and 88.2 nM, respectively.

Regarding `CC(=O)N1CCN(Cc2ccc(Nc3ncc(Cl)c(C#Cc4cnc(CN5CCC[C@H](O)C5)n4C(C)C)n3)nc2)CC1` [Example 106, (S)-1-(4-((6-((5-chloro-4-((2-((3-hydroxypiperidin-1-yl)methyl)-1-isopropyl-1H-imidazol-5-yl)ethynyl)pyrimidin-2-yl)amino)pyridin-3-yl)methyl)piperazin-1-yl)ethan-1-one], the IC50 turned out to be 280 nM at CDK6/cyclin D3 (setting [3]) and 33.3 nM against CDK4/cyclin D3 (setting [3]).

With `CC(C)n1c(C#Cc2nc(N[C@@H]3CCNC[C@H]3O)ncc2Cl)cnc1C(C)(C)O` [Example 60, (3R,4R)-4-((5-chloro-4-((2-(2-hydroxypropan-2-yl)-1-isopropyl-1H-imidazol-5-yl)ethynyl)pyrimidin-2-yl)amino)piperidin-3-ol], the IC50 is 162 nM on CDK6/cyclin D3 (setting [1]) and 47.6 nM against CDK4/cyclin D3 (setting [2]).

For the molecule `CC(C)n1c(C#Cc2nc(N[C@@H]3CCOC[C@H]3O)ncc2Cl)cnc1CN1CCC[C@H](C#N)C1` [Example 103, (S)-1-((5-((5-chloro-2-(((3 S,4R)-3-hydroxytetrahydro-2H-pyran-4-yl)amino)pyrimidin-4-yl)ethynyl)-1-isopropyl-1H-imidazol-2-yl)methyl)piperidin-3-carbonitrile], the IC50 came to 256 nM against CDK6/cyclin D3 (setting [3]) and 11.9 nM against CDK4/cyclin D3 (setting [3]).

For `CC1CCOc2ncc(C#Cc3nc(N[C@@H]4CCOC[C@H]4O)ncc3Cl)n21` (stereo partly drawn) [Example 132, (3 S,4R)-4-((5-chloro-4-((5-methyl-6,7-dihydro-5H-imidazo[2,1-o][1,3]oxazin-3-yl)ethynyl)pyrimidin-2-yl)amino)tetrahydro-2H-pyran-3-ol], the results for the IC50 at CDK6/cyclin D3 (setting [3]) and on CDK4/cyclin D3 (setting [3]) were 243 nM and 93.7 nM, respectively.

For `CC(C)c1c(C#Cc2nc(Nc3ccc(N4CC5(CN(CCF)C5)C4)cn3)ncc2F)cnn1C` [Example 82, 5-Fluoro-N-(5-(6-(2-fluoroethyl)-2,6-diazaspiro[3.3]heptan-2-yl)pyridin-2-yl)-4-((5-isopropyl-1-methyl-1H-pyrazol-4-yl)ethynyl)pyrimidin-2-amine], the IC50 at CDK6/cyclin D3 (setting [3]) was determined as 29.5 nM; at CDK4/cyclin D3 (setting [3]), 3.25 nM.

For `CCN1CC2(C1)CN(c1ccc(Nc3ncc(Cl)c(C#Cc4cnc(C)n4C(C)C)n3)nc1)C2` [Example 80, 5-chloro-N-(5-(6-ethyl-2,6-diazaspiro[3.3]heptan-2-yl)pyridin-2-yl)-4-((1-isopropyl-2-methyl-1H-imidazol-5-yl)ethynyl)pyrimidin-2-amine], the IC50 at CDK6/cyclin D3 (setting [3]) stood at 12 nM; on CDK4/cyclin D3 (setting [3]), 2.65 nM.

On to `CC(C)n1c(C#Cc2nc(N[C@@H]3CCOC[C@H]3O)ncc2Cl)cnc1C1CCCN1` (stereo partly drawn) [Example 68, (3 S,4R)-4-((5-chloro-4-((1-isopropyl-2-(pyrrolidin-2-yl)-1H-imidazol-5-yl)ethynyl)pyrimidin-2-yl)amino)tetrahydro-2H-pyran-3-ol], for which the half-inhibitory concentration (IC50) was found to be 2600 nM on CDK6/cyclin D3 (setting [3]) and 76.7 nM at CDK4/cyclin D3 (setting [3]).

`CCN1CCN(Cc2ccc(Nc3ncc(Cl)c(C#Cc4cnc(CN5CCC[C@H](O)C5)n4C(C)C)n3)nc2)CC1` [Example 107, (S)-1-((5-((5-chloro-2-((5-((4-ethylpiperazin-1-yl)methyl)pyridin-2-yl)amino)pyrimidin-4-yl)ethynyl)-1-isopropyl-1H-imidazol-2-yl)methyl)piperidin-3-ol]: the IC50 worked out at 116 nM on CDK6/cyclin D3 (setting [3]) and 8.86 nM on CDK4/cyclin D3 (setting [3]).

On to `CC(C)c1nn(CC(C)(C)O)cc1C#Cc1nc(N[C@@H]2CCOC[C@H]2O)ncc1Cl` [Example 65, (3 S,4R)-4-((5-chloro-4-((1-(2-hydroxy-2-methylpropyl)-3-isopropyl-1H-pyrazol-4-yl)ethynyl)pyrimidin-2-yl)amino)tetrahydro-2H-pyran-3-ol], for which the IC50 amounted to 1200 nM at CDK6/cyclin D3 (setting [1]) and 119 nM on CDK4/cyclin D3 (setting [2]).

With `CC(C)n1c(C#Cc2nc(N[C@@H]3CCOC[C@H]3O)ncc2Cl)cnc1C1(O)CC1` [Example 121, (3 S,4R)-4-((5-chloro-4-((2-(1-hydroxycyclopropyl)-1-isopropyl-1H-imidazol-5-yl)ethynyl)pyrimidin-2-yl)amino)tetrahydro-2H-pyran-3-ol], the concentration for half-maximal inhibition (IC50) on CDK6/cyclin D3 (setting [3]) was 75.9 nM; on CDK4/cyclin D3 (setting [3]), 9.24 nM.

Source of the values: patent publication EP4782445A1, “CDK KINASE INHIBITOR AND USE THEREOF” (Abbisko Therapeutics Co., Ltd., priority 2023, dated 2025).
